pIC50: −log10 of the molar value. Read-outs that look alike come from different tables or passages of the source.
Assays:
[1] = test system: Kasumi-1; assay: CCK-8 tumor cell proliferation, Kasumi-1; assay type: cell-based, Human; details: for IC50 for inhibiting the proliferation of tumor cells, Kasumi-1: Table 7, designed based on BTK inhibitors, 72 h; for pIC50: Homo sapiens, Table 19, IRAK4 inhibitor based, Kasumi-1, read-out: IC50 inhibiting proliferation of tumor cells, Kasumi-1
In short: (§1)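 Ten-point titrations (10 μM highest, 5-fold steps) were applied to cells 24 h after seeding. After treatment at 37 °C, 5% CO2, cell viability was read with CCK-8 and IC50 values were computed from the resulting inhibition curves.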

[2] = test system: MDA-MB-231; assay: CCK-8 tumor cell proliferation, MDA-MB-231; assay type: cell-based, Human; set-up: IC50 for inhibiting the proliferation of tumor cells, MDA-MB-231: scale not given here; details: Table 7, designed based on BTK inhibitors; 96 h
In short: as §1

[3] = test system: MM.1S; assay: CCK-8 tumor cell proliferation, MM.1S; assay type: cell-based; details: Table 7, designed based on BTK inhibitors; 72 h
In short: as §1

[4] = test system: 22RV1; assay: CCK-8 tumor cell proliferation, 22RV1; set-up: species or system Human; details: Table 7, designed based on BTK inhibitors; 96 h
Experimental: (§2) The tumor cells used herein were cultured in a cell culture medium listed in table 4 at 37° C. in an incubator with 5% CO2. Prior to experimentation, all cells used were correctly identified by STR profiling, and tested negative for mycoplasma through routine screenings.
(§3) IC50 values of the compounds of the present disclosure (including the compounds in Tables 1 and 3, and compounds of examples) were measured using the Meilun Cell Counting Kit-8 kit from Dalian Meilun Biotech Co., Ltd. Assay details are as follows: tumor cells were seeded in a 96-well plate at a density listed in Table 5. After 24 h, 100 μL of the inoculated cells were treated with 0.5 μL of the compounds of the present disclosure (including the compounds in Tables 1 and 3, and compounds of examples) at 10 different successively decreasing concentrations (starting at the highest concentration of 10 μM; 5-fold serial dilutions). After the cells were treated with the compounds of the present disclosure for a period of time, the cell viability detection reagent was added to the culture medium for cell viability assessment according to the instructions provided with the CCK-8 kit. […] The growth inhibition of the compounds of the present disclosure on cells was plotted by Prism Graphpad software, and the IC50 values of the compounds of the present disclosure were calculated therefrom.

[5] = test system: NCI-H1975; assay: CCK-8 tumor cell proliferation, NCI-H1975; assay type: cell-based, Human; details: Table 7, designed based on BTK inhibitors; 96 h
In short: as §1

[6] = test system: JEKO-1; assay: CCK-8 tumor cell proliferation, JEKO-1; set-up: species or system Human; details: Table 7, designed based on BTK inhibitors; 96 h
Experimental: as §2, §3

[7] = test system: Mino; assay: CCK-8 tumor cell proliferation, Mino; assay type: cell-based, Human; details: for IC50 for inhibiting the proliferation of tumor cells, Mino: Table 7, designed based on BTK inhibitors, 72 h; for pIC50: Mino, read-out: IC50 inhibiting proliferation of tumor cells, Mino
In short: as §1

[8] = test system: THP-1; assay: CCK-8 tumor cell proliferation, THP-1; assay type: cell-based, Human; details: Table 7, designed based on BTK inhibitors; 72 h
Experimental: as §2, §3

[9] = test system: MV-4-11; assay: CCK-8 tumor cell proliferation, MV-4-11; assay type: cell-based, Human; details: for IC50 for inhibiting the proliferation of tumor cells, MV-4-11: Table 7, designed based on BTK inhibitors, 72 h; for pIC50: Homo sapiens, MV4-11, Table 19, IRAK4 inhibitor based, MV-4-11, read-out: IC50 inhibiting proliferation of tumor cells, MV-4-11
In short: as §1

[10] = test system: MM.1R; assay: CCK-8 tumor cell proliferation, MM.1R; assay type: cell-based; details: for pIC50: Table 19, IRAK4 inhibitor based, read-out: IC50 inhibiting proliferation of tumor cells, MM.1R
In short: as §1

[11] = test system: Vcap; assay: CCK-8 tumor cell proliferation, Vcap; assay type: cell-based, Human; details: Table 7, designed based on BTK inhibitors; 96 h
In short: as §1

[12] = test system: Jurkat; assay: CCK-8 tumor cell proliferation, Jurkat; assay type: cell-based, Human; details: Homo sapiens; for pIC50: Table 19, IRAK4 inhibitor based, read-out: IC50 inhibiting proliferation of tumor cells, Jurkat
In short: as §1

[13] = test system: CAL-62; assay: CCK-8 tumor cell proliferation, CAL-62; assay type: cell-based, Human; details: Homo sapiens, CAL-62; for pIC50: Table 19, IRAK4 inhibitor based, read-out: IC50 inhibiting proliferation of tumor cells, CAL-62
In short: as §1

[14] = test system: PC-3; assay: CCK-8 tumor cell proliferation, PC-3; assay type: cell-based, Human; details: 96 h
Experimental: as §2, §3

[15] = test system: CCRF-CEM; assay: CCK-8 tumor cell proliferation, CCRF-CEM; assay type: cell-based, Human; set-up: IC50 for inhibiting the proliferation of tumor cells, CCRF-CEM: scale not given here; details: for IC50 for inhibiting the proliferation of tumor cells, CCRF-CEM: Table 7, designed based on BTK inhibitors, 96 h; for pIC50: Homo sapiens, Table 19, IRAK4 inhibitor based, CCRF-CEM, read-out: IC50 inhibiting proliferation of tumor cells, CCRF-CEM
In short: as §1

[16] = test system: SU-DHL-4; assay: CCK-8 tumor cell proliferation, SU-DHL-4; assay type: cell-based, Human; details: read-out: IC50 inhibiting proliferation of tumor cells, SU-DHL-4
Experimental: as §2, §3

[17] = test system: SW620; assay: CCK-8 tumor cell proliferation, SW620; assay type: cell-based, Human; details: SW620, read-out: IC50 inhibiting proliferation of tumor cells, SW620
In short: as §1

[18] = test system: NCI-H1666; assay: CCK-8 tumor cell proliferation, NCI-H1666; assay type: cell-based, Human; details: read-out: IC50 inhibiting proliferation of tumor cells, NCI-H1666
Experimental: as §2, §3

[19] = Homo sapiens, Table 19, IRAK4 inhibitor based
[20] = Homo sapiens, SW-620, Table 19, IRAK4 inhibitor based
[21] = Homo sapiens, Table 19, given as number

IC50 for inhibiting the proliferation of tumor cells, Kasumi-1 [1] | IC50 for inhibiting the proliferation of tumor cells, MDA-MB-231 [2] | IC50 for inhibiting the proliferation of tumor cells, MM.1S [3] | IC50 for inhibiting the proliferation of tumor cells, 22RV1 [4] | IC50 for inhibiting the proliferation of tumor cells, NCI-H1975 [5] | IC50 for inhibiting the proliferation of tumor cells, JEKO-1 [6] | IC50 for inhibiting the proliferation of tumor cells, THP-1 [8] | IC50 for inhibiting the proliferation of tumor cells, Vcap [11] | pIC50 [16, 19] | pIC50 [15] | pIC50 [1] | pIC50 [7, 19] | pIC50 [9] | pIC50 [10] | pIC50 [17, 20] | pIC50 [18, 19] | pIC50 [12] | pIC50 [13] | Structure (SMILES) | also measured
A+ | A+ | A+ | A+ | A+ | A+ | A+ | A+ |  |  |  |  |  |  |  |  |  |  | Nc1ncnc2c1c(-c1ccc(Oc3ccccc3)cc1)nn2C1CCN(Cc2ccc3c(c2)CN(C2CCC(=O)NC2=O)C3=O)CC1 (stereo not shown) [GT-02742, 3-(5-((4-(4-amino-3-(4-phenoxyphenyl)-1H-pyrazolo[3,4-d]pyrimidin-1-yl)piperidin-1-yl)methyl)-1-oxoisoindolin-2-yl)piperidine-2,6-dione] | IC50 for inhibiting the proliferation of tumor cells, Mino [7]: A+; IC50 for inhibiting the proliferation of tumor cells, MV-4-11 [9]: A+; IC50 ([10]; Table 23, compared to Comparative Example compounds, read-out: Inhibitory activity (IC50, nM) against tumor cell proliferation, MM.1R): < 50 nM; IC50 ([12]; Table 23, compared to Comparative Example compounds, read-out: Inhibitory activity (IC50, nM) against tumor cell proliferation, Jurkat): < 50 nM; IC50 ([13]; Table 23, compared to Comparative Example compounds, read-out: Inhibitory activity (IC50, nM) against tumor cell proliferation, CAL-62): < 50 nM
 |  |  |  |  |  |  |  |  |  |  |  |  |  |  |  |  |  | N#Cc1ccc(O[C@H]2CC[C@H](NC(=O)c3ccc(N4CCC(N5CCN(Cc6ccc7c(c6)CN(C6CCC(=O)NC6=O)C7=O)CC5)CC4)nn3)CC2)cc1Cl (stereo partly shown) [GT-02989, N-((1r,4r)-4-(3-chloro-4-cyanophenoxy)cyclohexyl)-6-(4-(4-((2-(2,6-dioxopiperidin-3-yl)-1-oxoisoindolin-5-yl)methyl)piperazin-1-yl)piperidin-1-yl)pyridazine-3-carboxamide] | IC50 for inhibiting the proliferation of tumor cells, PC-3 ([14]; Table 10, designed based on AR inhibitors): A+
A+ | A+ | A+ | A+ | A+ | A+ | A+ | A+ |  |  |  |  |  |  |  |  |  |  | Nc1ncnc2c1c(-c1ccc(Oc3ccccc3)cc1)nn2[C@@H]1CCN(Cc2ccc3c(c2)CN(C2CCC(=O)NC2=O)C3=O)C[C@@H]1F (stereo partly drawn) [GT-03297, 3-(5-(((3S,4R)-4-(4-amino-3-(4-phenoxyphenyl)-1H-pyrazolo[3,4-d]pyrimidin-1-yl)-3-fluoropiperidin-1-yl)methyl)-1-oxoisoindolin-2-yl)piperidine-2,6-dione] | IC50 for inhibiting the proliferation of tumor cells, CCRF-CEM [15]: A+
A+ | A+ | A+ | A+ | A+ | A+ | A+ | A+ |  |  |  |  |  |  |  |  |  |  | Nc1ncnc2c1c(-c1ccc(Oc3ccccc3)cc1)nn2[C@H]1CCN(Cc2ccc3c(c2)CN(C2CCC(=O)NC2=O)C3=O)C[C@H]1F (stereo partly drawn) [GT-03331, 3-(5-(((3R,4S)-4-(4-amino-3-(4-phenoxyphenyl)-1H-pyrazolo[3,4-d]pyrimidin-1-yl)-3-fluoropiperidin-1-yl)methyl)-1-oxoisoindolin-2-yl)piperidine-2,6-dione] | IC50 for inhibiting the proliferation of tumor cells, CCRF-CEM [15]: A+; IC50 for inhibiting the proliferation of tumor cells, Mino [7]: A+; IC50 for inhibiting the proliferation of tumor cells, MV-4-11 [9]: A+
 |  |  |  |  |  |  |  | 6.00 to 6.30 | > 7.30 | > 7.30 | > 7.30 | > 7.30 | > 7.30 | > 7.30 | 6.00 to 6.30 | > 7.30 | > 7.30 | O=C1CCC(N2Cc3cc(CN4CCC(n5cc(NC(=O)c6cnn7ccc(N8CCOCC8)nc67)c(C(F)F)n5)CC4)ccc3C2=O)C(=O)N1 (stereo not shown) [GT-03809, N-(3-(difluoromethyl)-1-(1-((2-(2,6-dioxopiperidin-3-yl)-1-oxoisoindolin-5-yl)methyl)piperidin-4-yl)-1H-pyrazol-4-yl)-5-morpholinopyrazolo[1,5-a]pyrimidine-3-carboxamide] | 
 |  |  |  |  |  |  |  | 6.30 to 7.00 | > 7.30 | > 7.30 | > 7.30 | > 7.30 | > 7.30 | > 7.30 | 6.30 to 7.00 | > 7.30 | > 7.30 | O=C1CCC(N2Cc3c(ccc(CN4CCC(n5cc(NC(=O)c6cnn7ccc(N8CCOCC8)nc67)c(C(F)F)n5)CC4)c3F)C2=O)C(=O)N1 (stereo not shown) [GT-03810, N-(3-(difluoromethyl)-1-(1-((2-(2,6-dioxopiperidin-3-yl)-4-fluoro-1-oxoisoindolin-5-yl)methyl)piperidin-4-yl)-1H-pyrazol-4-yl)-5-morpholinopyrazolo[1,5-a]pyrimidine-3-carboxamide] | 
 |  |  |  |  |  |  |  | 6.30 to 7.00 | > 7.30 | > 7.30 | > 7.30 | > 7.30 | > 7.30 | > 7.30 | 7.00 to 7.30 | > 7.30 | > 7.30 | O=C1CCC(N2Cc3cc(CN4CCC(n5cc(NC(=O)c6cnn7ccc(N8CCOCC8)nc67)c(C(F)F)n5)CC4)c(F)cc3C2=O)C(=O)N1 (stereo not shown) [GT-03811, N-(3-(difluoromethyl)-1-(1-((2-(2,6-dioxopiperidin-3-yl)-6-fluoro-1-oxoisoindolin-5-yl)methyl)piperidin-4-yl)-1H-pyrazol-4-yl)-5-morpholinopyrazolo[1,5-a]pyrimidine-3-carboxamide] | 
 |  |  |  |  |  |  |  |  |  |  |  |  |  |  |  |  |  | Cc1sc2c(c1C)C(c1ccc(Cl)cc1)=N[C@@H](CC(=O)OC(C)(C)C)c1nnc(C)n1-2 [JQ-1, reference compound] | pIC50 ([14]; Table 16, designed based on BET inhibitors, read-out: IC50 for inhibiting the proliferation of tumor cells, PC-3): < 5.00
 |  |  |  |  |  |  |  |  |  |  |  |  |  |  |  |  |  | CC[C@@H]1[C@H](F)C(=O)N[C@@H]1COc1nccc2cc(C(N)=O)c(OC)cc12 [PF06650833, reference compound] | pIC50 ([16]; Table 19, given as number): < 5.00; pIC50 ([7]; Table 19, IRAK4 inhibitor based): 5.00 to 5.30; pIC50 ([17]; Table 19, given as number): < 5.00; pIC50 ([18]; Table 19, given as number): < 5.00
 |  |  |  |  |  |  |  |  |  |  |  |  |  |  |  |  |  | Cc1cc(-c2nc(C(=O)Nc3cc4oc(N5CCOCC5)nc4nc3N3CC[C@@H](O)C3)co2)ccn1 [emavusertib, reference compound] | pIC50 [16, 21]: < 5.00; pIC50 [7, 21]: < 5.00; pIC50 ([17]; Homo sapiens, SW-620, Table 19, given as number): < 5.00; pIC50 [18, 21]: < 5.00

Source: patent US20260199323A1, “LIGAND COMPOUNDS FOR E3 UBIQUITIN LIGASE, PROTEIN DEGRADERS DEVELOPED ON BASIS OF LIGAND COMPOUNDS, AND USES THEREOF” (GLUETACS THERAPEUTICS (SHANGHAI) CO., LTD., priority 2021, published 2026)
